Assays:
[1] = In vivo plasma half-life in mice; details: mouse, IV, 9.3 mL/Kg of 3.2 mg/mL solution of Example 1, LC-MS
Procedure: In vivo Plasma Half-life of Compounds of the Present Invention in Mice.
The in vivo half-life of Compound 1 in mice was determined by measurement of its plasma concentrations at various time points following IV dosing. 18 male CD-1 mice aged 7-9 weeks were dosed IV with a 9.3 mL/Kg dose of a 3.2 mg/mL solution of Example 1 in 15% hydroxyl-propyl-beta-cyclodextrin/4.4% glucose/1 mM potassium phosphate (pH=7.6). Plasma samples were obtained at 10, 20, 30, 60, 120 and 240 min post-dose, sampling from 3 animals at each time point. Concentrations of Compound 1 in plasma were determined by LC-MS quantification.

[2] = test system: Methicillin Resistant Staphylococcus aureus (MRSA, ATCC 33591); assay: Neutropaenic mouse thigh infection model, further experiment; assay type: in vivo, mice; details: IV 2 and 14 h after infection; 2.5-50 mg/Kg; thigh at 26 h
Procedure: In a further experiment groups of 6 male ICR mice weighing 24±2 g were used. Test animals were immunosuppressed by 2 intraperitoneal injections of cyclophosphamide, the first at 150 mg/Kg 4 days before infection (day-4) and the second at 100 mg/Kg 1 day before infection (day-1). On day 0, individual animals were inoculated intramuscularly (IM) into the right thigh of test animals with 1.5×10^5 CFU/mouse of Methicillin Resistant Staphylococcus aureus (MRSA, ATCC 33591) suspended in 100 μL of sterile PBS, pH 7.4. Vehicle and test substances were administered intravenously (IV) at a dose volume of 8 mL/Kg, 2 and 14 hours after thigh infection. Example 1 was dissolved in 5% dextrose/1 mM potassium phosphate, pH 5.0 and administered at doses of 2.5, 5, 10, 15, 25 and 50 mg/Kg. At 26 hours after inoculation, muscle of the right thigh of each test mouse was harvested. From an additional group with no treatment, muscle of the right thigh was harvested at 2 hours after inoculation for the basal CFU determination. The removed muscle tissues were then homogenized in 3-4 mL of PBS, pH 7.4 with a ceramic mortar. Homogenates of 0.1 mL were used for serial 10-fold dilutions and plated on Mueller Hinton broth in 1.5% Bacto agar for CFU determination.

[3] = test system: Staphylococcus aureus methicillin resistant ATCC 33591; assay: Mouse bacteraemia model, second experiment, IV dosing; assay type: in vivo, mice; details: for number of deaths: 7 days, groups of 6; for survival of mice after 7 days: 1, 3, 5 and 10 mg/kg IV
Procedure: In a second experiment Groups of 6 male CD-1 (Crl.) derived mice weighing 24±2 g were used. Mice were inoculated intraperitoneally (IP) with an LD90-100 of Staphylococcus aureus methicillin resistant ATCC 33591 (1.35×10^8 CFU/mouse) in 0.5 mL of BHI broth containing 5% mucin. Example 1 was dissolved in 5% dextrose/1.5 mM potassium phosphate, pH 5.0 and doses of 1, 3, 5 and 10 mg/Kg were administered intravenously (IV) to test animals at 1 and 13 hour(s) after bacteria challenge. The dosing volume was 5 mL/Kg. Mortality was recorded once daily for 7 days.

[4] = Laser beam light scattering through cuvette (FIG. 1); assay type: physicochemical; details: naked eye
Source text: FIG. 1 is a series of photographs of two control formulations (glucose and vancomycin) and a formulation of Example 1, after a laser beam has been shone through a cuvette containing the same. […] In each case the presence or absence of the beam in the samples is clearly visible to the naked eye.
The colloid formulation according to the present invention is distinguished from a solution by the fact that a polarised beam of light, such as from laser, shone through the formulation, for example held in a 1 cm cuvette, causes the formulation to scatter light visible to the naked eye therefrom, for example in the form of a beam. Whilst not wishing to be bound by theory, this luminous path may be known as a Tyndall beam or Rayleigh scatter, both of which are a result of the scattering of the light by the particles in the colloid.

[5] = test system: Staphylococcus aureus methicillin resistant ATCC 33591; assay: Mouse bacteraemia model, SC dosing; assay type: in vivo, mice
Procedure: In Vivo Efficacy of Compounds in a Mouse Bacteraemia Model
Groups of 6 male CD-1 (Crl.) derived mice weighing 24±2 g were used. Mice were inoculated intraperitoneally (IP) with an LD90-100 of Staphylococcus aureus methicillin resistant ATCC 33591 (1.1×10^7CFU/mouse) in 0.5 mL of BHI broth containing 5% mucin. Example 1 and vancomycin were dissolved in 15% HPbetaCD/4.4% glucose/0.5 mM KH2PO4, pH 5.0 and doses of 1, 3, 5, 10 and 20 mg/Kg were administered subcutaneously (SC) to test animals at 0, 2 and 24 hour(s) after bacteria challenge. The dosing volume was 5 mL/Kg. Mortality was recorded once daily for 7 days. The ED50 for each compound was determined by nonlinear regression.

[6] = test system: Methicillin Resistant Staphylococcus aureus (MRSA, ATCC 33591); assay: Neutropaenic mouse thigh infection model; assay type: in vivo, mice; details: for antimicrobial effect: 5, 10, 20, 30 and 40 mg/Kg x2 IV
Procedure: Efficacy of Compounds in a Neutropaenic Mouse Thigh Infection Model.
In vivo efficacy of compounds of the present invention in the treatment of bacterial tissue infections was evaluated using a neutropaenic mouse thigh model.
Groups of 6 male ICR mice weighing 24±2 g were used. Test animals were immuno-suppressed by 2 intraperitoneal injections of cyclophosphamide, the first at 150 mg/Kg 4 days before infection (day-4) and the second at 100 mg/Kg 1 day before infection (day−1). On day 0, individual animals were inoculated intramuscularly (IM) into the right thigh of test animals with 1.15×10^5 CFU/mouse of Methicillin Resistant Staphylococcus aureus (MRSA, ATCC 33591) suspended in 100 μL of sterile PBS, pH 7.4. Vehicle and test substances were administered intravenously (IV) at a dose volume of 6 mL/Kg, 2 and 14 hours after thigh infection. Example 1 and vancomycin were dissolved in 15% hydroxypropyl-beta-cyclodextrin/4.4% glucose/1.5 mM potassium phosphate buffer, pH 7.0 and administered at doses of 5, 10, 20, 30 and 40 mg/Kg. At 26 hours after inoculation, muscle of the right thigh of each test mouse was harvested. From an additional group with no treatment, muscle of the right thigh was harvested at 2 hours after inoculation for the basal CFU determination. The removed muscle tissues were then homogenized in 3-4 mL of PBS, pH 7.4 with a ceramic mortar. Homogenates of 0.1 mL were used for serial 10-fold dilutions and plated on Mueller Hinton broth in 1.5% Bacto agar for CFU determination.

## CC[C@H](C)[C@@H]1NC(=O)[C@@H]2NC(=O)[C@H](CC(C)C)NC(=O)[C@H](NC(=O)[C@@H]3CSC[C@@H](N)C(=O)N[C@@H](CO)C(=O)NCC(=O)N[C@@H](Cc4c[nH]c5ccccc45)C(=O)N[C@@H](C(C)C)C(=O)N3)[C@H](C)SC[C@H](NC(=O)[C@H](CCC(=O)O)NC1=O)C(=O)NCC(=O)N[C@H]1C(=O)N[C@@H](CC(C)C)C(=O)N[C@@H](C(C)C)C(=O)N[C@@H](CS[C@H]2C)C(=O)N[C@@H](C)C(=O)N[C@H](C(=O)NCc2cc(Cl)cc(Cl)c2)CS[C@H]1C [Compound 1, Deoxyactagardine B (3,5-dichlorobenzylamine)monocarboxamide]
[1]
  half-life: ~2 h

## CN[C@H](CC(C)C)C(=O)N[C@H]1C(=O)N[C@@H](CC(N)=O)C(=O)N[C@H]2C(=O)N[C@H]3C(=O)N[C@H](C(=O)N[C@H](C(=O)O)c4cc(O)cc(O)c4-c4cc3ccc4O)[C@H](O)c3ccc(c(Cl)c3)Oc3cc2cc(c3O[C@@H]2O[C@H](CO)[C@@H](O)[C@H](O)[C@H]2O[C@H]2C[C@](C)(N)[C@H](O)[C@H](C)O2)Oc2ccc(cc2Cl)[C@H]1O [vancomycin, reference compound]
[2]
  bacterial counts in the thigh tissue (FIG. 3): dose dependent reduction in the bacterial counts
[3]; 1 mg/kg IV at 1 and 13 h
  number of deaths: 5
[3]; 3 mg/kg IV at 1 and 13 h
  number of deaths: 3
[3]; 5 mg/kg IV at 1 and 13 h
  number of deaths: 1
[3]; 10 mg/kg IV at 1 and 13 h
  number of deaths: 0
[3]
  survival of mice after 7 days: dose-dependent increase in survival
[4]
  visibility of laser beam through formulation (light scattering): the beam is not visible
[5]; 3, 5, 10 and 20 mg/Kg x3, SC
  antimicrobial effect against S. aureus (MRSA) in mice: significant antimicrobial effect
[5]; Staphylococcus aureus, ATCC33591, SC at 0, 2 and 24 h after challenge, mortality over 7 days, nonlinear regression, read-out: estimated ED50
  ED50: 3 mg/kg
[6]; 30 mg/kg and above, x2 IV, thigh at 26 h
  reductions of CFU/g: > 100 fold
[6]
  antimicrobial effect: significant antimicrobial effect
[6]; doses 5-40 mg/Kg x2 IV, thigh at 26 h
  reduction of CFU/g, highest attained: ≤ 1,000 fold

## Deoxyactagardine B (3,5-dichlorobenzylamine)monocarboxamide [Example 1]
[2]
  bacterial counts in the thigh tissue (FIG. 3): dose dependent reduction in the bacterial counts
[3]; 1 mg/kg IV at 1 and 13 h
  number of deaths: 5
[3]; 3 mg/kg IV at 1 and 13 h
  number of deaths: 4
[3]; 5 mg/kg IV at 1 and 13 h
  number of deaths: 1
[3]; 10 mg/kg IV at 1 and 13 h
  number of deaths: 1
[3]
  survival of mice after 7 days: dose-dependent increase in survival
[4]
  visibility of laser beam through formulation (light scattering): the beam is visible
[5]; 3 mg/Kg, SC
  survival rate: 100%
[5]; 3, 5, 10 and 20 mg/Kg x3, SC
  antimicrobial effect against S. aureus (MRSA) in mice: significant antimicrobial effect
  increase in survival rate: at least 50%
[5]; SC at 0, 2 and 24 h after challenge, mortality over 7 days, nonlinear regression
  estimated ED50: 1.07 mg/kg
[6]; 10 mg/kg and above, x2 IV, thigh at 26 h
  reduction in CFU/g: > 1.000 fold
[6]
  antimicrobial effect: significant antimicrobial effect
